Data reported in PubChem BioAssay AID2060886 (Molecular Pharmacology Branch, DTP, NCI, 2025).

Test system: 653999-131-R-J2-PDC complex spheroids, growth inhibition
Assay: Anticancer human tumor 653999-131-R-J2-PDC patient-derived lung adenocarcinoma cell line growth inhibition [RAS]
Settings: for IC50: curve of first compound; for viability, T/C: stronger effect = lower value
Summary of the method: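 Tumour cells grown as complex spheroids with HUVEC endothelial cells and mesenchymal stem cells, treated with RAS pathway inhibitor combinations. Each agent spans half-log steps from near clinical Cmax, or 10 microM where Cmax is unknown.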
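Further: spheroids exposed to the agents for seven days before the readout.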

For `Cc1nc(N2CCC3(CC2)COC(C)C3N)c(CO)nc1Sc1ccnc(N)c1Cl` (centres undefined) + C#Cc1c(F)ccc2cc(O)cc(-c3ncc4c(N5CC6CCC(C5)N6)nc(OCC56CCCN5CC(F)C6)nc4c3F)c12, the IC50 (second compound 0.0316 µM) was > 10000 nM, the IC50 (second compound 0.1 µM) was > 10000 nM and the IC50 (second compound 0.316 µM) was > 10000 nM. The IC50 (second compound 1 µM) was 193 nM, the IC50 (second compound 3.16 µM) was < 31.6 nM and the IC50 (second compound 10 µM) was < 31.6 nM. For the same molecule, the viability, T/C (second compound 0.0316 µM, first compound 0.0316 µM) was 89.8%, the viability, T/C (second compound 0.0316 µM, first compound 0.1 µM) was 88.9% and the viability, T/C (second compound 0.0316 µM, first compound 0.316 µM) was 74.5%. It also gave a viability, T/C (second compound 0.0316 µM, first compound 1 µM) of 69.2%, a viability, T/C (second compound 0.0316 µM, first compound 3.16 µM) of 73.2% and a viability, T/C (second compound 0.0316 µM, first compound 10 µM) of 76.2%. It also gave a viability, T/C (second compound 0.1 µM, first compound 0.0316 µM) of 65.3%, a viability, T/C (second compound 0.1 µM, first compound 0.1 µM) of 62.1% and a viability, T/C (second compound 0.1 µM, first compound 0.316 µM) of 66%. The viability, T/C (second compound 0.1 µM, first compound 1 µM) was 60%, the viability, T/C (second compound 0.1 µM, first compound 3.16 µM) was 64.3% and the viability, T/C (second compound 0.1 µM, first compound 10 µM) was 55.2%. The viability, T/C (second compound 0.316 µM, first compound 0.0316 µM) was 68.4%, the viability, T/C (second compound 0.316 µM, first compound 0.1 µM) was 52.6% and the viability, T/C (second compound 0.316 µM, first compound 0.316 µM) was 50.5%. The viability, T/C (second compound 0.316 µM, first compound 1 µM) was 45.9%, the viability, T/C (second compound 0.316 µM, first compound 3.16 µM) was 74.5% and the viability, T/C (second compound 0.316 µM, first compound 10 µM) was 47.9%. For the same molecule, the viability, T/C (second compound 1 µM, first compound 0.0316 µM) was 61.8%, the viability, T/C (second compound 1 µM, first compound 0.1 µM) was 52.9% and the viability, T/C (second compound 1 µM, first compound 0.316 µM) was 48.5%. For the same molecule, the viability, T/C (second compound 1 µM, first compound 1 µM) was 41.1%, the viability, T/C (second compound 1 µM, first compound 3.16 µM) was 30.5% and the viability, T/C (second compound 1 µM, first compound 10 µM) was 30.2%. The viability, T/C (second compound 3.16 µM, first compound 0.0316 µM) was 41.9%, the viability, T/C (second compound 3.16 µM, first compound 0.1 µM) was 35.4% and the viability, T/C (second compound 3.16 µM, first compound 0.316 µM) was 32.2%. For the same molecule, the viability, T/C (second compound 3.16 µM, first compound 1 µM) was 21.8%, the viability, T/C (second compound 3.16 µM, first compound 3.16 µM) was 17.3% and the viability, T/C (second compound 3.16 µM, first compound 10 µM) was 20.2%. For the same molecule, the viability, T/C (second compound 10 µM, first compound 0.0316 µM) was 27%, the viability, T/C (second compound 10 µM, first compound 0.1 µM) was 13.9% and the viability, T/C (second compound 10 µM, first compound 0.316 µM) was 18.9%. For the same molecule, the viability, T/C (second compound 10 µM, first compound 1 µM) was 11%, the viability, T/C (second compound 10 µM, first compound 3.16 µM) was 8.6% and the viability, T/C (second compound 10 µM, first compound 10 µM) was 9.77%.

With `CCC(CC)c1cc(NC2CCC(N)C2)n2nccc2n1` (centres undefined) + CCn1c(-c2cc(N3CCN(C)CC3)cnc2C(C)OC)c2c3cc(ccc31)-c1csc(n1)CC(NC(=O)C1CC1C)C(=O)N1CCCC(N1)C(=O)OCC(C)(C)C2 the IC50 (second compound 0.000949 µM) was 1280 nM, the IC50 (second compound 0.003 µM) was 722 nM and the IC50 (second compound 0.00949 µM) was 195 nM. The IC50 (second compound 0.03 µM) was < 31.6 nM, the IC50 (second compound 0.0949 µM) was < 31.6 nM and the IC50 (second compound 0.3 µM) was < 31.6 nM. For the same molecule, the viability, T/C (second compound 0.000949 µM, first compound 0.0316 µM) was 84.6%, the viability, T/C (second compound 0.000949 µM, first compound 0.1 µM) was 101% and the viability, T/C (second compound 0.000949 µM, first compound 0.316 µM) was 91.2%. The viability, T/C (second compound 0.000949 µM, first compound 1 µM) was 59.9%, the viability, T/C (second compound 0.000949 µM, first compound 3.16 µM) was 12% and the viability, T/C (second compound 0.000949 µM, first compound 10 µM) was 15%. The viability, T/C (second compound 0.003 µM, first compound 0.0316 µM) was 59.1%, the viability, T/C (second compound 0.003 µM, first compound 0.1 µM) was 88.6% and the viability, T/C (second compound 0.003 µM, first compound 0.316 µM) was 84.2%. For the same molecule, the viability, T/C (second compound 0.003 µM, first compound 1 µM) was 39.2%, the viability, T/C (second compound 0.003 µM, first compound 3.16 µM) was 10.5% and the viability, T/C (second compound 0.003 µM, first compound 10 µM) was 18.8%. For the same molecule, the viability, T/C (second compound 0.00949 µM, first compound 0.0316 µM) was 55.8%, the viability, T/C (second compound 0.00949 µM, first compound 0.1 µM) was 56.5% and the viability, T/C (second compound 0.00949 µM, first compound 0.316 µM) was 45.6%. For the same molecule, the viability, T/C (second compound 0.00949 µM, first compound 1 µM) was 26.4%, the viability, T/C (second compound 0.00949 µM, first compound 3.16 µM) was 16.4% and the viability, T/C (second compound 0.00949 µM, first compound 10 µM) was 17.4%. The viability, T/C (second compound 0.03 µM, first compound 0.0316 µM) was 38.8%, the viability, T/C (second compound 0.03 µM, first compound 0.1 µM) was 51% and the viability, T/C (second compound 0.03 µM, first compound 0.316 µM) was 29.6%. It also gave a viability, T/C (second compound 0.03 µM, first compound 1 µM) of 20.4%, a viability, T/C (second compound 0.03 µM, first compound 3.16 µM) of 12.5% and a viability, T/C (second compound 0.03 µM, first compound 10 µM) of 18.8%. For the same molecule, the viability, T/C (second compound 0.0949 µM, first compound 0.0316 µM) was 29.3%, the viability, T/C (second compound 0.0949 µM, first compound 0.1 µM) was 27.8% and the viability, T/C (second compound 0.0949 µM, first compound 0.316 µM) was 28.9%. The viability, T/C (second compound 0.0949 µM, first compound 1 µM) was 12.1%, the viability, T/C (second compound 0.0949 µM, first compound 3.16 µM) was 11.7% and the viability, T/C (second compound 0.0949 µM, first compound 10 µM) was 18.9%. For the same molecule, the viability, T/C (second compound 0.3 µM, first compound 0.0316 µM) was 29.8%, the viability, T/C (second compound 0.3 µM, first compound 0.1 µM) was 24.9% and the viability, T/C (second compound 0.3 µM, first compound 0.316 µM) was 26.4%. The viability, T/C (second compound 0.3 µM, first compound 1 µM) was 12.7%, the viability, T/C (second compound 0.3 µM, first compound 3.16 µM) was 13.3% and the viability, T/C (second compound 0.3 µM, first compound 10 µM) was 17.5%.
